Measured values published in publication PMC11218446, “Antibacterial efficacy and membrane mechanism of action of the Serratia-derived non-ionic lipopeptide, serrawettin W2-FL10” (Microbiology Spectrum, 2024).

What was measured:
Format in all cases: cell-based, Staphylococcus aureus
[1] = test system: MRSA Xen 30; test: Membrane depolarization assay, DiSC3(5)
Procedure: (§1) The membrane depolarization capability (ability to disrupt membrane potential) of the W2-FL10 against S. aureus ATCC 25923, S. aureus RN4220, or MRSA Xen 30 was determined using the voltage-sensitive fluorescent probe, DiSC3(5) ([20]). Briefly, black 96-well plates were prepared with W2-FL10 at 12.5 µg/mL and 25 µg/mL, while 4 and 8 µg/mL of melittin were used as a positive depolarization control, and the plates were air dried as described in the “Antibacterial activity: broth microdilution assay” section. The S. aureus strains were inoculated into MHB and grown to the mid-log phase (OD600 of 0.5–0.6). Cells were harvested by centrifugation at 3,000 rpm for 10 min and resuspended in HEPES buffer (5 mM, pH 7.4, containing 20 mM glucose; 100 mM KCl) to OD600 of 0.05. Thereafter, DiSC3(5) (stock concentration of 400 µM in 100% DMSO) was added to the cell suspension to a final concentration of 0.4 µM, and cells were incubated in the dark at room temperature for 40 min. Cell suspensions (100 µL) were then dispensed into the wells of the black 96-well plate. Sterile broth and the OD-adjusted inoculum with DiSC3(5) were included as a non-fluorescent control, sterile broth with DiSC3(5) was included as a sterility control, and melittin was included as membrane depolarization control. All the tests were performed in triplicate, with independent duplicates. Fluorometric readings of the plate were conducted at 1 min intervals over 12 min (readings began 60 s after cells were added to the plates) using a Tecan Spark at 622 nm excitation wavelength and 670 nm emission wavelength. Statistical comparison of the kinetic trends elicited by the treatment with peptide with the control (cells alone) was done using two-way ANOVA with Bonferroni’s post hoc test.

[2] = test system: S. aureus ATCC 25923; test: Membrane depolarization assay, DiSC3(5)
Procedure: as §1

[3] = test system: S. aureus RN4220; test: Membrane depolarization assay, DiSC3(5)
Procedure: as §1

[4] = test system: three S. aureus strains; test: Membrane permeability assay, propidium iodide, summary; conditions: discussion
Procedure: The membrane permeability capabilities of the W2-FL10 against the S. aureus strains were determined using PI ([56]). Briefly, black 96-well plates were prepared with W2-FL10 at 6.25, 12.5, and 25 µg/mL, while 4–16 µg/mL of melittin was used as a positive permeability control, and the plates were dried as described in the “Antibacterial activity: broth microdilution assay” section. The S. aureus strains were inoculated into MHB, grown to mid-log phase (OD600 of 0.5–0.6), and diluted to OD600 of 0.3. PI (stock concentration of 1 mg/mL in analytical quality H2O) was added to the cell suspension to a final concentration of 10 µg/mL and cells were incubated in the dark at room temperature for 20 min. Thereafter, 100 µL of OD-adjusted PI cells in the mid-log phase were dispensed into each well. Sterile broth and the OD-adjusted inoculum with PI were included as a non-fluorescent control, while sterile broth with PI was included as a sterility control, and melittin was included as membrane depolarization control. […] Fluorometric readings of the plate were conducted in 4-min intervals over 60 min (readings began ~60 s after cells were added to the plate) using a Tecan Spark at 535 nm excitation wavelength and 617 nm emission wavelength.
The leakage kinetics or PI permeabilization kinetic was assessed using a rate parameter of ΔPI fluorescence per minute. […]

CCCCCCCC1CC(=O)N[C@H](CC(C)C)C(=O)N[C@@H](CO)C(=O)N[C@@H]([C@@H](C)O)C(=O)N[C@H](Cc2ccccc2)C(=O)N[C@@H](CC(C)C)C(=O)O1 (stereo partly shown) [W2-FL10, serrawettin W2-FL10]
depolarization, in words ([1]; 12.5 µg/mL, up to 720 s): appreciable depolarization
time at which the DiSC3(5) fluorescent signal doubled ([1]; 25 µg/mL): 420 s
increase in DiSC3(5) fluorescent signal, in words ([2]; 12.5 µg/mL, up to 720 s (Fig. 4A)): negligible
time at which the DiSC3(5) fluorescent signal doubled ([2]; 25 µg/mL): 660 s
increase in DiSC3(5) fluorescent signal, in words ([3]; 12.5 µg/mL, up to 720 s (Fig. 4C)): negligible
time at which the DiSC3(5) fluorescent signal doubled ([3]; 25 µg/mL): 480 s
time within which delayed leakage of PI occurred [4]: 30 to 45 min
